How the values were obtained:
[1] = test system: HL-1 cells; assay: Autophagy scored by intracellular distribution of GFP-LC3 (fluorescence microscopy) in HL-1 cells; type: cell-based, murine; conditions: for effect on upregulation/induction of autophagy by CCPA: inhibitor pretreatment, then CCPA, normoxic, before ischemia
[2] = test system: HL-1 cells; assay: Cell death by LDH release after simulated ischemia/reperfusion (sI/R) in HL-1 cells; type: cell-based, murine; conditions: for effect on cytoprotection by CCPA (LDH release): inhibitor plus CCPA, then sI/R (2 hr sI, 3 hr R)
Experimental: Cells of the murine atrial-derived cardiac cell line HL-1^16 were plated in gelatin/fibronectin-coated culture vessels and maintained in Claycomb medium^16 (JRH Biosciences, Lenexa, Kans.) supplemented with 10% fetal bovine serum, 0.1 mm norepinephrine, 2 mm […], 100 U·mL^-1 penicillin, 100 U·mL^-1 streptomycin, and 0.25 μg·mL^-1 amphotericin B. Cells were plated in 14-mm diameter glass bottom microwell dishes (MatTek), and ischemia was introduced by a buffer exchange to ischemia-mimetic solution (in mM: 20deoxyglucose, 125 NaCl, 8 KCl, 1.2 KH2PO4, 1.25 MgSO4, 1.2 CaCl2, 6.25 NaHCO2, 5 sodium lactate, 20 HEPES, pH 6.6) and placing the dishes in hypoxic pouches (GasPakTM EZ, BD Biosciences) equilibrated with 95% N2, 5% CO2. After 2 hr of simulated ischemia, reperfusion was initiated by a buffer exchange to normoxic MKH buffer and incubation at 95% room air, 5% CO2. Controls incubated in normoxic MKH buffer were run in parallel for each condition for periods of time that corresponded with those of the experimental groups. […] The cell cultures were washed with PBS prior to the experimental treatment. Protein content and LDH activity were determined according to El-Ani et al.^20. Briefly, 25 μl supernatants from 35 mm dishes were transferred into wells of a 96-well plate, and the LDH activities were determined with an LDH-L kit (Sigma), according to the manufacturer. The product of the enzyme was measured spectrophotometrically at 30° C. at a wavelength of 340 nm as described previously^21. The results were expressed relative to the control (X-fold) in the same experiment. Each experiment was done in triplicate and was repeated at least three times.

[3] = test system: HL-1 cells; assay: Cell death by propidium iodide uptake after sI/R in HL-1 cells; type: cell-based, murine; conditions: 100 nM CCPA 10 min before sI/R; end of reperfusion
Experimental: Cells were plated in 14-mm diameter glass bottom microwell dishes (MatTek), and ischemia was introduced by a buffer exchange to ischemia-mimetic solution (in mM: 20deoxyglucose, 125 NaCl, 8 KCl, 1.2 KH2PO4, 1.25 MgSO4, 1.2 CaCl2, 6.25 NaHCO2, 5 sodium lactate, 20 HEPES, pH 6.6) and placing the dishes in hypoxic pouches (GasPakTM EZ, BD Biosciences) equilibrated with 95% N2, 5% CO2. After 2 hr of simulated ischemia, reperfusion was initiated by a buffer exchange to normoxic MKH buffer and incubation at 95% room air, 5% CO2. Controls incubated in normoxic MKH buffer were run in parallel for each condition for periods of time that corresponded with those of the experimental groups. Cells were stained immediately after sI/R with propidium iodide (5 μg/ml), which stains nuclei of cells whose plasma membranes have become permeable because of cell damage. The assay was performed according to […] et al.^22. For counterstaining we used Hoechst 33342 (10 μM), which stains the nuclei of all cells.

[4] = test system: adult rat cardiomyocytes; assay: Autophagy (GFP-LC3 puncta) in adult rat cardiomyocytes; type: cell-based
[5] = test system: mCherry-LC3 transgenic mice; assay: Induction of autophagy in vivo in hearts of mCherry-LC3 transgenic mice
[6] = test system: adult rat cardiomyocytes; conditions: CCPA 10 min before simulated ischemia (FIG. 7B)
[7] = test system: neonatal rat cardiomyocytes; assay: Autophagosomes (GFP-LC3) in neonatal rat cardiomyocytes; conditions: 100 nM CCPA, 10 min
Experimental: To analyze the number of GFP-LC3 puncta in population, cells were inspected at 60× magnification and classified as: (a) cells with predominantly diffuse GFP-LC3 fluorescence; or as (b) cells with numerous GFP-LC3 puncta (>30 dots/cell), representing autophagosomes. At least 200 cells were scored for each condition in three or more independent experiments.
(A) GFP-LC3 transfected HL-1 cells were treated for 120 min in full medium (FM) with various concentrations (0.001-10 μM) of CCPA. (B) GFP-LC3-transfected HL-1 cells were treated with 100 nM CCPA for the indicated time, then fixed with paraformaldehyde and scored by fluorescence microscopy. […] (D) Representative images of neonatal cardiomyocytes under control conditions or 10 min after administration of 100 nM CCPA. (E) Representative images of adult cardiomyocytes under control conditions or 10 min after administration of 100 nM CCPA. (F) Transgenic mice expressing mCherry-LC3 under the αMHC promoter received an i.p. injection of saline or 1 mg/kg CCPA, then were sacrificed 30 min later and heart tissue was processed for fluorescence microscopy.

[8] = test system: isolated perfused rat hearts; assay: Langendorff global ischemia/reperfusion injury in isolated perfused rat hearts (CK release, TTC infarct size, hemodynamics)
[9] = test system: isolated perfused rat hearts; assay: Autophagy in isolated perfused rat hearts (LC3-II/LC3-I Western blot, cadaverine dye binding)
[10] = test system: PKC δ; assay: PKC delta translocation/redistribution in perfused rat heart and adult rat cardiomyocytes; type: cell-based
[11] = test system: PKC epsilon; assay: PKC epsilon translocation in perfused rat heart; type: cell-based; conditions: after SUL administration
Experimental: Subcellular fractionation. Frozen heart samples were thawed on ice in homogenization buffer containing (in mmol/L): Tris-HCL 20, EDTA 2, EGTA 10, PMSF 1, leupeptin 0.1, E-64 0.01, and sucrose 250). The tissue was then minced and Plytron homogenized (Kinematica, Basel, Switzerland) on ice for 15s for three passes. The homogenates were centrifuged at 600 g for 5 min at 4° C, and the crude supernatants were further centrifuged at 10,000 g for 10 min 4° C. The supernatant, designated as crude cytosol, was divided and one fraction was further centrifuged at 100,000 g for 1 h at 4° C. The resulting supernatant was designated as cytosolic fraction. The pellet was resuspended in homogenization buffer with 1% TritonX-100, incubated on ice for 1 h, then centrifuged at 100,000 g for 1 h at 4° C. The resulting supernatant was designated as the particulate fraction. Samples were stored at −80° C. until use. Western blot analysis. Proteins prepared from rat hearts were quantified by Bio-Rad protein assay. For immunodetection, 50 μg of crude cytosol prepared as above were resolved on SDS-PAGE 10% denaturing gels and transferred to PVDF nylon membranes. The membranes were blocked with 5% nonfat dry milk in TNT buffer (in mM: NaCl 100, Tris·HCl 10 (pH 7.4), and 0.1% Tween-20) for 1 h. […] To quantify the protein, intensity of bands was assessed with Scion Image Software.

CC(=O)OCOC(=O)CN(CC(=O)OCOC(C)=O)c1ccccc1OCCOc1ccccc1N(CC(=O)OCOC(C)=O)CC(=O)OCOC(C)=O [BAPTA-AM]
effect on upregulation/induction of autophagy by CCPA [1]: suprressed the induction of autophagy by CCPA

OC[C@H]1O[C@@H](n2cnc3c(NC4CCCC4)nc(Cl)nc32)[C@H](O)[C@@H]1O [CCPA, 2-chloro-N(6)-cyclopentyladenosine]
percentage of cells with numerous autophagosomes (autophagic flux) ([1]; 100 nM 10 min, full medium, with or without Bafilomycin A1 (FIG. 2)): increased the percentage of cells with numerous autophagosomes under both steady-state and cumulative conditions | autophagosomes after sI/R ([1]; 100 nM 10 min, then 2 hr sI, 3 hr R): Fewer autophagosomes | extent of autophagy induced by starvation ([1]; 100 nM 10 min, then starvation in MKH 3 hr): no effect | autophagy in delayed preconditioning ([1]; 24 hr after 10 min CCPA and washout, normoxia): upregulated | repair autophagy at reperfusion in delayed preconditioning ([1]; 24 hr after 10 min CCPA, then sI/R): less | persistence of the increase in autophagosomes ([1]; CCPA 100 nM): at least 300 min | time to increase in the number of autophagosomes ([1]; CCPA 100 nM): ≤ 10 min | induction of autophagy ([1]; full medium, 0.001-10 μM, 120 min (FIG. 1A)): induced autophagy in a dose-dependent fashion | LDH release ([2]; 100 nM CCPA 10 min before sI/R, end of simulated ischemia): diminished LDH release | uptake of propidium iodide [3]: diminished | autophagy (percentage of cells with numerous puncta) ([4]; CCPA 10 min (FIG. 7A)): induced autophagy | number of mCherry-LC3-labeled structures in left ventricle cryosections ([5]; CCPA 1 mg/kg i.p., 30 min): a large increase in the number of mCherry-LC3-labeled structures | cytoprotection (LDH release at end of simulated ischemia) [6]: conferred cytoprotection | number of autophagosomes [7]: an increase in the number of autophagosomes

CCCn1c(=O)c2[nH]c(C3CCCC3)nc2n(CCC)c1=O [DPCPX]
effect on upregulation/induction of autophagy by CCPA [1]: partially blocked | effect on autophagy in the second window of protection ([1]; with CCPA 10 min, washout, 20-24 hr later): blocked the effects of CCPA on autophagy | effect on cytoprotection by CCPA (LDH release) [2]: Cytoprotection was abolished | effect on cytoprotection by CCPA in the second window of protection (LDH release) ([2]; with CCPA 10 min, washout, sI/R 20-24 hr later): abolished the cytoprotection by CCPA

Nc1ccc(S(=O)(=O)Nc2ccnn2-c2ccccc2)cc1 [SUL, sulfaphenazole]
percentage of cells with numerous autophagosomes ([4]; 10 μM SUL, 30 min): significantly increased | number of autophagosomes in hearts ([5]; SUL 10 mg/kg i.p.): significant increase in the number of autophagosomes | contractility before ischemia ([8]; 10 μM SUL): no effect | infarct size (TTC) ([8]; 10 μM SUL from 10 min before ischemia, 30 min ischemia, 120 min reperfusion): reduced infarct size | recovery of contractile function after I/R ([8]; 10 μM SUL, pre-ischemic administration): about 90 % of pre-ischemic value | CK release ([8]; 10 μM SUL, coronary effluent, first 15 min of reperfusion): attenuated CK release | infarct size ([8]; SUL alone, 120 min reperfusion): 5 % of the area at risk | infarct size (TTC) ([8]; SUL introduced at the onset of reperfusion): the reduction of infarct size was sustained | infarct size (TTC) ([8]; SUL introduced at the onset of reperfusion, listed as sulfaphenazole): reduces infarct size | BODIPY-TR-cadaverine incorporation into autophagosomes ([9]; SUL administration (FIG. 15B)): increased | ratio of LC3-II/I ([9]; SUL perfusion 30 min): doubling | PKC delta translocation (cytosol to particulate fraction) ([10]; Langendorff-perfused heart, 30 min after SUL infusion): translocation of PKC delta to the particulate fraction | distribution of PKC delta (immunostaining) ([10]; adult rat cardiomyocytes, SUL 15 min): much more closely aligned with alpha-actinin | PKC epsilon translocation [11]: did not show a consistent pattern of translocation

COc1ccc2c(c1)CC[C@@H]1[C@@H]2CC[C@]2(C)[C@@H](NCCCCCCN3C(=O)C=CC3=O)CC[C@@H]12 [U73122]
autophagy after sI/R (repair autophagy) ([1]; inhibitor 15 min, then CCPA 10 min, then sI/R): an increase in autophagy after sI/R | effect on upregulation/induction of autophagy by CCPA [1]: PLC is required for CCPA stimulation of autophagy before ischemia | effect on cytoprotection by CCPA (LDH release) [2]: an increase in LDH release

COc1ccc2c(c[n+](C)c3c4cc5c(cc4ccc23)OCO5)c1OC [chelerythrine]
effect on SUL-induced increase in cells with numerous autophagosomes ([4]; chelerythrine 5 μM 10 min before 10 μM SUL): suppressed | infarct size with or without SUL ([8]; chelerythrine 15 min before ischemia): no difference in infarct size whether SUL is present or absent | effect on autophagy induced by SUL (cadaverine dye binding) ([9]; chelerythrine with SUL): suppressed autophagy induced by SUL

C/C=C(/C)C(=O)O[C@H]1C(C)=C2[C@H]([C@@H]1OC(=O)CCCCCCC)[C@@](C)(OC(C)=O)C[C@H](OC(=O)CCC)[C@@]1(O)[C@H]2OC(=O)[C@@]1(C)O [thapsigargin]
effect on upregulation/induction of autophagy by CCPA [1]: suprressed the induction of autophagy by CCPA
